{"source": "patent US8703161B2", "about": "“Skin repair compositions comprising circadian gene activators and a synergistic combination of Sirt1 gene activators” (ELC Management, LLC, priority 2007, dated 2014)", "system": "UVB-irradiated human keratinocytes", "assay": "Survival of UVB-irradiated keratinocytes, MTS viability (Example 1)", "type": "cell-based", "conditions": "for decreased survival rate: 45 mJ/cm2 UV", "experimental": "Orsirtine™ ((SEQ ID No. 8) G-L-Y-D-N-L-E) and resveratrol, […], were tested for their ability to improve survival of UVB-irradiated human keratinocytes.\nNormal human keratinocytes were cultured in Epilife Medium with Human Keratinocyte Growth Supplement. The cells were sub-cultured into 96-well plates (Costar). Keratinocytes were pretreated with resveratrol (25 μM) and Orsirtine (1%, 3%) by themselves, and in a complex of resveratrol (25 μM) and Orsirtine™ (3%). Keratinocytes were treated with the undiluted complex and with dilutions of 1:2, 1:4 and 1:8 (complex: Epilife media).\nKeratinocytes were incubated with these treatments overnight at 37° C.; 5% CO2. After 24 hours, the treatment was aspirated and keratinocytes were washed once in D-PBS. 100 μl of D-PBS was added for the irradiation. The cells were subjected to UVB irradiation at 0, 45, 90 and 135 mJ/cm^2 UVB. After the irradiation, D-PBS was removed. Keratinocytes were post treated appropriately and incubated overnight at 37° C.; 5% CO2. The next day, cells were assayed for viability, utilizing MTS reagent (CellTiter96, Promega). Absorbance readings were taken on the SpectraMax190 spectrophotometer (Molecular Devices) at 490 nm following an approximate two hour incubation at 37° C.; 5% CO2.", "key": {"[1]": {"conditions": "Orsirtine 3% alone, listed as Orsirtine ™"}}, "note": "Ends that are not written are not given here.", "data": [{"molecule": "Oc1ccc(/C=C\\c2cc(O)cc(O)c2)cc1", "note": "[Resveratrol, 3,5,4′-trihydroxystilbene, reference compound]", "values": [{"measurement": "decreased survival rate", "setting": "just resveratrol (25 μM)", "result": 20, "unit": "%"}, {"measurement": "Increased survival after 90 mJ/cm^2 UV", "setting": "Resveratrol 25 μM alone", "result": "−15", "unit": "%"}, {"measurement": "Increased survival after 135 mJ/cm^2 UV", "setting": "Resveratrol 25 μM alone", "result": 22, "unit": "%"}, {"measurement": "decreased survivability", "setting": "UVB of 90 mJ/cm^2, 25 μM Resveratrol by itself", "result": 15, "unit": "%"}]}, {"molecule": "GLYDNLE [Orsirtine™, peptide G-L-Y-D-N-L-E, INCI Water (and) Glycerin (and) Oryza Sativa (Rice) Extract, from ISP Vincience]", "values": [{"measurement": "decreased survival rate", "setting": "just Orsirtine 3%", "result": 8, "unit": "%"}, {"measurement": "Increased survival after 90 mJ/cm^2 UV", "setting": "Orsirtine 1% alone", "result": "−17", "unit": "%"}, {"measurement": "Increased survival after 135 mJ/cm^2 UV", "setting": "Orsirtine 1% alone", "result": 5, "unit": "%"}, {"measurement": "Increased survival after 90 mJ/cm^2 UV", "setting": "Orsirtine 3% alone", "result": 11, "unit": "%"}, {"measurement": "Increased survival after 135 mJ/cm^2 UV", "setting": "Orsirtine 3% alone", "result": 26, "unit": "%"}, {"measurement": "Increased survival after 90 mJ/cm^2 UV", "setting": "[1]", "result": 11, "unit": "%"}, {"measurement": "Increased survival after 135 mJ/cm^2 UV", "setting": "[1]", "result": 26, "unit": "%"}]}]}
